The values that follow come from US20110239332A1, “PROPAGATION OF SWITCHGRASS AND MISCANTHUS” (priority 2008, published 2011).

The subject of experiment [1] is switchgrass shoots. The note with it: 8 weeks (12 weeks to plant), 29° C., BAP as only plant hormone; cited from earlier work.
Experiment [2] relates to switchgrass shoots. In words: In vitro shoot multiplication of switchgrass in culture media. The format is cell-based, Panicum virgatum L. The protocol:
A drawback of the use of known propagation conditions is a limited shoot multiplication rate. […] Alexandrova described how to multiply up to 500 shoots from one plant in 8 weeks (12 weeks to plant) at 29° C. and used only one plant hormone Benzylaminopurine (BAP) for multiplication of switchgrass shoots (Alexandrova et al. 1996). However, it has been discovered that 31° C. is a preferable temperature for multiplication of switchgrass shoots. It has also been discovered that liquid medium is preferable for increased multiplication. Applicants optimized multiplication of Switchgrass shoots with a combination of several plant hormones Benzylaminopurine+Naphthaleneacetic acid+Thidiazuron+Paclobutrazol (BAP+NAA+TDZ+PBZ).
It was discovered that an increase in the amount of 6 micro-elements restored growth to shoots and prevented shoot death and, in particular, an increase in the amount of CuSO4.7H2O added to the media increased multiplication rates increased up to about 7× every 3 weeks. MS media contains 0.025 mg/L CuSO4.7H2O. An increase of up to about 10× every 3 weeks in multiplication rate was achieved when shoots were broken apart every 2-3 weeks. […]

The subject of the next experiment is Miscanthus shoots. In words: In vitro shoot multiplication of Miscanthus in culture media. The format is cell-based, Miscanthus × giganteus. Conditions: high TDZ (1.65 mg/L) compared with about 0.25 mg/L TDZ, media at 31° C. The protocol:
In propagating Miscanthus stem nodes in culture media, Nielsen used high amounts of Thidiazuron (TDZ) (1.65 mg/L), which is a cost limiting hormone additive in shoot multiplication growth media (Nielsen et. al. 1993; Nielsen et. al. 1995).
Stems of actively growing Miscanthus × giganteus having dormant nodes were harvested and sterilized using 1.5% sodium hypochlorite (25% bleach) solution followed by three rinses using sterile water. Stem segments comprising nodes were cut to 3 cm long and then cut longitudinally down the center of the each stem. The prepared stem portions were then placed under growth conditions of 50 μE of light and a 16 h day. The temperature was 31° C. Stem segments were grown in […] Petri plates for solid culture, however any suitable sterile container can be used for solid or liquid culture. Time between sub-culturing was 14-21 days. Shoots were cut to 3-4 cm in length when sub-culturing.
The media used for the above-described growth conditions comprised MS medium plus vitamins (full strength) (Phytotechnologies™ Product ID-M519), 30 g/L sucrose (87.7 mM), […] MgCl2 (750 mg/L of MgCl2.6H2O), pH 5.6 for semi-solid media, […], and 6 g/L agar. The following hormones were added after autoclaving of the media. […]

Turning to `c1ccc(CNc2ncnc3[nH]cnc23)cc1` [BAP, Benzylaminopurine], the “shoots multiplied from one plant” value with switchgrass shoots [1] is “up to 500 shoots”.

In the case of `O.O.O.O.O.O.O.O=S(=O)([O-])[O-].[Cu+2]` [CuSO4.7H2O], the shoot multiplication rate entry in the experiment on switchgrass shoots [2] (increased CuSO4.7H2O, shoots broken apart every 2-3 weeks) was “about 10 × every 3 weeks”; with switchgrass shoots [2] (increased amount of CuSO4.7H2O added to the media (MS media contains 0.025 mg/L)), “about 7 × every 3 weeks”.

As to `O=C(Nc1ccccc1)Nc1cnns1` [TDZ, Thidiazuron], the “shoot thickness and shoot production” value in the experiment on Miscanthus shoots was “multiplied shoots were thinner and shoot production was less”.
